# Columns and labels:
# [1] = target: Gamma-secretase (Homo sapiens) (UniProt Q96BI3+Q9NZ42+Q8WW43+P49768+Q92542+P49810); test: (§1) Modulation of gamma-secretase in human H4 cells expressing human wild type APP751 assessed as reduction in amyloid beta42 level incubated overnight by ELISA; format: cell-based; conditions: filed as modulator
# Gamma-secretase [2] = test: as §1; format: cell-based
# [3] = Unbound clearance in human hepatocytes; format: ADME, cell-based, Hepatocyte
# Rattus norvegicus [4] = test: In vivo modulation of gamma secretase in rat assessed as reduction in Abeta42 levels in CSF at 30 mg/kg, po measured after 6 hrs by ELISA relative to control; format: functional, Cerebrospinal fluid; set-up: scale not given: the % may be the effect or the level left
# Rattus norvegicus [5] = test: In vivo modulation of gamma secretase in rat assessed as reduction in Abeta42 levels in brain by measuring AUC(0 to 24 hrs) at 30 mg/kg, po by ELISA; format: functional; set-up: scale not given: the % may be the effect or the level left
# Rattus norvegicus [6] = test: In vivo modulation of gamma secretase in rat assessed as reduction in Abeta42 levels in CSF by measuring AUC(0 to 24 hrs) at 30 mg/kg, po by ELISA; format: functional, Cerebrospinal fluid; set-up: scale not given: the % may be the effect or the level left
# Rattus norvegicus [7] = test: In vivo modulation of gamma secretase in rat assessed as reduction in Abeta40 levels in brain by measuring AUC(0 to 24 hrs) at 30 mg/kg, po by ELISA; format: functional; set-up: scale not given: the % may be the effect or the level left
# Rattus norvegicus [8] = test: In vivo modulation of gamma secretase in rat assessed as reduction in Abeta37 levels in brain by measuring AUC(0 to 24 hrs) at 30 mg/kg, po by ELISA; format: functional; set-up: scale not given: the % may be the effect or the level left
# Rattus norvegicus [9] = test: In vivo modulation of gamma secretase in rat assessed as reduction in Abeta37 levels in CSF by measuring AUC(0 to 24 hrs) at 30 mg/kg, po by ELISA; format: functional, Cerebrospinal fluid; set-up: scale not given: the % may be the effect or the level left
# Rattus norvegicus [10] = test: In vivo modulation of gamma secretase in rat assessed as reduction in Abeta42 levels in brain at 30 mg/kg, po measured at 16 hrs by ELISA relative to control; format: functional; set-up: scale not given: the % may be the effect or the level left
# Rattus norvegicus [11] = test: In vivo modulation of gamma secretase in rat assessed as reduction in Abeta42 levels in CSF at 30 mg/kg, po measured at 9 hrs by ELISA relative to control; format: functional, Cerebrospinal fluid; set-up: scale not given: the % may be the effect or the level left
# Rattus norvegicus [12] = test: In vivo modulation of gamma secretase in rat assessed as reduction in Abeta40 levels in brain at 30 mg/kg, po measured at 16 hrs by ELISA relative to control; format: functional; set-up: scale not given: the % may be the effect or the level left
# Rattus norvegicus [13] = test: In vivo modulation of gamma secretase in rat assessed as reduction in Abeta40 levels in CSF at 30 mg/kg, po measured at 9 hrs by ELISA relative to control; format: functional, Cerebrospinal fluid; set-up: scale not given: the % may be the effect or the level left
# [14] = AUClast in nonhuman primate at 10 mg/kg, po; format: ADME, organism-based; set-up: time 0 - last, route oral, dose 10 mg/kg; conditions: primates, in vivo
# [15] = Cmax in dog at 10 mg/kg, po; format: ADME, organism-based, Canis lupus familiaris; set-up: route oral, dose 10 mg/kg; conditions: in vivo
# [16] = Bioavailability in rat at 1 mg/kg, iv; format: ADME, organism-based; conditions: in vivo
# [17] = Volume of distribution at steady state in rat at 1 mg/kg, iv; format: ADME, organism-based; conditions: in vivo, read-out: Vdss
# [18] = Volume of distribution at steady state in dog at 0.5 mg/kg, iv; format: ADME, organism-based, Canis lupus familiaris; conditions: in vivo, read-out: Vdss
# [19] = Clearance in rat at 1 mg/kg, iv; format: ADME, organism-based; conditions: in vivo
# [20] = Clearance in nonhuman primate at 1 mg/kg, iv; format: ADME, organism-based; conditions: primates, in vivo
# [21] = Apparent permeability across apical to basolateral side in MDCK-MDR1 cells; format: ADME, cell-based, Canis lupus familiaris; conditions: dog
# [22] = Apparent permeability across apical to basolateral side in human Caco2 cells; format: ADME, cell-based; conditions: Caco-2
# [23] = Drug metabolism in rat hepatocytes assessed as mono and di-oxidative metabolites formation after 4 hrs; format: ADME, cell-based, Hepatocyte
# [24] = Drug metabolism in monkey hepatocytes assessed as mono and di-oxidative metabolites formation after 4 hrs; format: ADME, cell-based, Macaca mulatta, Hepatocyte; conditions: rhesus monkey
# Cytochrome P450 2C9 = Cytochrome P450 2C9 (Homo sapiens, UniProt P11712); test: Inhibition of CYP2C9 (unknown origin); format: ADME
# Cytochrome P450 3A4 = Cytochrome P450 3A4 (Homo sapiens, UniProt P08684); test: Inhibition of CYP3A4 (unknown origin); format: ADME
# Cytochrome P450 2C8 = target: T1, Cytochrome P450 2C8 (Homo sapiens, UniProt P10632); test: Inhibition of CYP2C8 (unknown origin); format: ADME
# T1 sequence (P10632 whole entry): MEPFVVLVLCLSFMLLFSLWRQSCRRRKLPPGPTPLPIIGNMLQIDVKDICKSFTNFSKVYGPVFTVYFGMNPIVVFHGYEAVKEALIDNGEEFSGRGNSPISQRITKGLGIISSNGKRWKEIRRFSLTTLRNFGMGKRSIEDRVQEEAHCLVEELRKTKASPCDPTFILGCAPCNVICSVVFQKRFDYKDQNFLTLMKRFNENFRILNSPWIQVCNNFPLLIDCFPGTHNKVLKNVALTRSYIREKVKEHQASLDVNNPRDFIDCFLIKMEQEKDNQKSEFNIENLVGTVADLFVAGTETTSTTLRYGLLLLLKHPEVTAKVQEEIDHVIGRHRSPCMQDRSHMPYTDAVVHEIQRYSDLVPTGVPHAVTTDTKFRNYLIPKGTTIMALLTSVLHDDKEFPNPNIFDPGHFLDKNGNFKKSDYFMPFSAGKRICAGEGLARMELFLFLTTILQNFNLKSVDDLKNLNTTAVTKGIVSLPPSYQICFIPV
# Cytochrome P450 2C19 = Cytochrome P450 2C19 (Homo sapiens, UniProt P33261); test: Inhibition of CYP2C19 (unknown origin); format: ADME
# Cytochrome P450 2D6 = Cytochrome P450 2D6 (Homo sapiens, UniProt P10635); test: Inhibition of CYP2D6 (unknown origin); format: ADME
# Gamma-secretase [25] = test: Inhibition of gamma secretase (unknown origin) assessed as reduction in notch cleavage; format: functional, Homo sapiens
# [26] = target: 5-hydroxytryptamine receptor 2B (Homo sapiens) (UniProt P41595); test: Inhibition of serotonin 2B receptor (unknown origin) at 10 uM relative to control
# [27] = target: Cannabinoid receptor 1 (Homo sapiens) (UniProt P21554); test: Inhibition of Cannabinoid receptor 1 (unknown origin) at 10 uM relative to control
# [28] = target: Sodium-dependent serotonin transporter (Homo sapiens) (UniProt P31645); test: Inhibition of serotonin transporter (unknown origin) at 10 uM relative to control
# Homo sapiens = species: Homo sapiens; test: Inhibition of sodium channel (unknown origin) at 10 uM relative to control
# [29] = Genotoxicity in Salmonella typhimurium by mini-Ames test; format: toxicity; conditions: salmonella enterica subsp. enterica serovar typhimurium
# [30] = Toxicity in guinea pig assessed as effect on sino-atrial node function in heart by Langendorff test; format: tissue-based, Cavia porcellus; conditions: in vivo
# [31] = Toxicity in guinea pig assessed as effect on ion channel function in heart by Langendorff test; format: tissue-based, Cavia porcellus; conditions: in vivo
# [32] = Toxicity in guinea pig assessed as effect on signal conduction function in heart by Langendorff test; format: tissue-based, Cavia porcellus; conditions: in vivo
# [33] = Toxicity in rat assessed as effect on cardiac compliance by telemetry; conditions: in vivo
# Cannabinoid receptor 1 (Homo sapiens), sequence (P21554 whole entry): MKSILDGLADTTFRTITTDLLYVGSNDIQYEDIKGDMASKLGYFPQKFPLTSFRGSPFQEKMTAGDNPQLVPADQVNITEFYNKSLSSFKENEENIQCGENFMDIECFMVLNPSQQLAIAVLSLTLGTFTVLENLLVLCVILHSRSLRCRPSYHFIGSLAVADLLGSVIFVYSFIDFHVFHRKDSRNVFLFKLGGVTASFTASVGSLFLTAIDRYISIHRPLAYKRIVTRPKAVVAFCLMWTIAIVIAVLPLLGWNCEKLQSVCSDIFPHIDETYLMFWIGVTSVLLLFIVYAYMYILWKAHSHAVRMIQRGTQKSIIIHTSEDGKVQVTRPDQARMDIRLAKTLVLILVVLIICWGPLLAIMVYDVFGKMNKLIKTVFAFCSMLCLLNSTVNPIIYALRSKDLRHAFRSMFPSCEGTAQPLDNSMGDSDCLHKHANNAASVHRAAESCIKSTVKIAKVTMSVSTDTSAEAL
# Cytochrome P450 3A4, sequence (P08684 whole entry): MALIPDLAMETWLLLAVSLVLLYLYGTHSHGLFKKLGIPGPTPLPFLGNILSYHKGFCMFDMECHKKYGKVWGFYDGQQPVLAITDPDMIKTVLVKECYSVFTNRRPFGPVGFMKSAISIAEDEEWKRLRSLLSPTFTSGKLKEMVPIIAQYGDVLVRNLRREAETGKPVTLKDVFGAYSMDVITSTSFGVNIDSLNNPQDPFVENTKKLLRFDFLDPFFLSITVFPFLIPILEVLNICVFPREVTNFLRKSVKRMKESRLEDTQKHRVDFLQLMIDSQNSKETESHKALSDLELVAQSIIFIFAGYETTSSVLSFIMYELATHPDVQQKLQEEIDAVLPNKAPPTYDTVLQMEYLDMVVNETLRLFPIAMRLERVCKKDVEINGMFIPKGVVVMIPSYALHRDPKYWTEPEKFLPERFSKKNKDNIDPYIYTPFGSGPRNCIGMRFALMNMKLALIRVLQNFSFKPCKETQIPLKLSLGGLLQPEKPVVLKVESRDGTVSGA
# Cytochrome P450 2D6, sequence (P10635 whole entry): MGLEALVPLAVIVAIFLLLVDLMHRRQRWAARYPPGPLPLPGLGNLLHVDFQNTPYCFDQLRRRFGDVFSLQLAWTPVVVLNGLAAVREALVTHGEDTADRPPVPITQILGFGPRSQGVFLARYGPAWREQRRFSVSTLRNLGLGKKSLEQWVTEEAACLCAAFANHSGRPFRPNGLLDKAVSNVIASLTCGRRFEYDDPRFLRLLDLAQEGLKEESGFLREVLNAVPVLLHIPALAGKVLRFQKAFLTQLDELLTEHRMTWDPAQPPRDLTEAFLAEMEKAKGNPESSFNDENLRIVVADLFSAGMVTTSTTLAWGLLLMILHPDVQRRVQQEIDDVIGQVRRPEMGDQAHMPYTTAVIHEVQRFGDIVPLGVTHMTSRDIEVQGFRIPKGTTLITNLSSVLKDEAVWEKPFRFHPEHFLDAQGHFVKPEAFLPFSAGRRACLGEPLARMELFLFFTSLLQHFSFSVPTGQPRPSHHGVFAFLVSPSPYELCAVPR
# Sodium-dependent serotonin transporter (Homo sapiens), sequence (P31645 whole entry, looked up): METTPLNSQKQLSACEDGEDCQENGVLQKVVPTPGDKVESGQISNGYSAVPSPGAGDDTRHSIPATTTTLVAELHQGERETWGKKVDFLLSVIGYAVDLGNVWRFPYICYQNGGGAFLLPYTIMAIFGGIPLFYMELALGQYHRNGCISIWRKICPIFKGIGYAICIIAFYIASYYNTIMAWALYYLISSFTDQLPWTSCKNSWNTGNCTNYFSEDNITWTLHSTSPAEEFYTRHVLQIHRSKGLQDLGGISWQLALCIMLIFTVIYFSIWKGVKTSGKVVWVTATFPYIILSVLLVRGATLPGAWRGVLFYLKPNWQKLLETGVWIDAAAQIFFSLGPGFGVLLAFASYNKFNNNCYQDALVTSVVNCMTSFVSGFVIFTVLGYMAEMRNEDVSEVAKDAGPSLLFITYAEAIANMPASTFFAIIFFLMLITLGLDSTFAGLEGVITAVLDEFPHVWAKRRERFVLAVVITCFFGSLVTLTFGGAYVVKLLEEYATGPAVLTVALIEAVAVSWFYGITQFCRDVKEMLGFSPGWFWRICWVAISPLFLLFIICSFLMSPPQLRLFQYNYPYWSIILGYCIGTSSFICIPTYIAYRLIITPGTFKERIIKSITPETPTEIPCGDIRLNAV
# Cytochrome P450 2C19, sequence (P33261 whole entry): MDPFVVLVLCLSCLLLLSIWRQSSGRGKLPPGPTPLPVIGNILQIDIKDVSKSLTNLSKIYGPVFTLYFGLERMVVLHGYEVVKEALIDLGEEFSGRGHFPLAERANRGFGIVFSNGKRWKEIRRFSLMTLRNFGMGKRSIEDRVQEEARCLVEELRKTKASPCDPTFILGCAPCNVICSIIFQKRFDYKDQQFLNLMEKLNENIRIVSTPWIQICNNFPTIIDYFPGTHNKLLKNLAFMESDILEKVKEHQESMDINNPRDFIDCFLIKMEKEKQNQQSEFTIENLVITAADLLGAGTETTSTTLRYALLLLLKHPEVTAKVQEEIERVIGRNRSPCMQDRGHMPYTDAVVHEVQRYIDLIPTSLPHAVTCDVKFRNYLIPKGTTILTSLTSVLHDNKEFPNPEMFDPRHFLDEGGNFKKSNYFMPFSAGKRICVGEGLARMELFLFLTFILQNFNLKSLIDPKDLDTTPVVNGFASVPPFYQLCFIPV
# 5-hydroxytryptamine receptor 2B (Homo sapiens), sequence (P41595 whole entry): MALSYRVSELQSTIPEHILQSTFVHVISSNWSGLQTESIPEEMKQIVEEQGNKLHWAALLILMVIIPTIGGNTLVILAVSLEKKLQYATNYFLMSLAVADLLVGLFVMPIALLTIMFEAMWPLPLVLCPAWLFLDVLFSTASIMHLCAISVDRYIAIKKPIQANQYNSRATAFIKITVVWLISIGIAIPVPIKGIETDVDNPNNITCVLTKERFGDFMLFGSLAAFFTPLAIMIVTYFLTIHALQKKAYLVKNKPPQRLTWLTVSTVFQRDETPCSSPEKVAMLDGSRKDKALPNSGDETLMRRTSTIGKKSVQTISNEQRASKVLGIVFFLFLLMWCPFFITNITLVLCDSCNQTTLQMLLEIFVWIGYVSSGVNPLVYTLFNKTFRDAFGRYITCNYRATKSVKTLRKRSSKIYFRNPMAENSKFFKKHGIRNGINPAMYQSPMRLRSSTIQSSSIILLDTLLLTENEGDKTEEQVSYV
# Cytochrome P450 2C9, sequence (P11712 whole entry): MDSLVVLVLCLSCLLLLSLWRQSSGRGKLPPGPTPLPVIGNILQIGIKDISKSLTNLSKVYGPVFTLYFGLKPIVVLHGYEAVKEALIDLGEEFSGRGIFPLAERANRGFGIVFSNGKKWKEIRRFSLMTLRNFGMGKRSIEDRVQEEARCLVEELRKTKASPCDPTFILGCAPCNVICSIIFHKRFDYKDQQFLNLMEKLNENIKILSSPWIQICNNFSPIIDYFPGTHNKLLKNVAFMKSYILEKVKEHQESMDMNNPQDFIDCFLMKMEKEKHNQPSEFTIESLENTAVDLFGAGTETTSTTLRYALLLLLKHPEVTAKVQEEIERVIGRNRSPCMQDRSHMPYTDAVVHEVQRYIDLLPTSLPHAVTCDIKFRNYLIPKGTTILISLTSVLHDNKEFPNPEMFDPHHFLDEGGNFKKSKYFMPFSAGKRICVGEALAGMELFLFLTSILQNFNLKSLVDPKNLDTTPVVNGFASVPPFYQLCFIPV
smiles,measurement,setting,value
COc1nc(C2=NOC(C3CC3)C(c3ccc(Cl)cc3)N2)ccc1-n1cnc(C)c1 (centres undefined),EC90,[1],0.123 µM
same,EC50,Gamma-secretase [2],0.009 µM
same,CL free,[3],4 mL/min/kg
same,Activity,Rattus norvegicus [4],88%
same,Activity,Rattus norvegicus [5],39%
same,Activity,Rattus norvegicus [6],71%
same,Activity,Rattus norvegicus [7],25%
same,Activity,Rattus norvegicus [8],88%
same,Activity,Rattus norvegicus [9],380%
same,Activity,Rattus norvegicus [10],50%
same,Activity,Rattus norvegicus [11],91%
same,Activity,Rattus norvegicus [12],36%
same,Activity,Rattus norvegicus [13],67%
same,AUC(0-t),[14],55.9 µM·h
same,Cmax,[15],4.03 µM
same,bioavailability,[16],86%
same,Vd,[17],2.4 L/kg
same,Vd,[18],0.8 L/kg
same,clearance,[19],3.1 mL/min/kg
same,clearance,[20],3.5 mL/min/kg
same,Papp A→B,[21],34 ×10⁻⁶ cm/s
same,Papp A→B,[22],6.6 ×10⁻⁶ cm/s
same,Drug metabolism,[23],Metabolite_Detected
same,Drug metabolism,[24],Metabolite_Detected
same,IC50,Cytochrome P450 2C9,≥ 14 µM
same,IC50,Cytochrome P450 3A4,≥ 14 µM
same,IC50,Cytochrome P450 2C8,2.6 µM
same,IC50,Cytochrome P450 2C19,9.1 µM
same,IC50,Cytochrome P450 2D6,4.5 µM
same,IC50,Gamma-secretase [25],> 10 µM
same,inhibition,[26],> 50%
same,inhibition,[27],> 50%
same,inhibition,[28],> 50%
same,inhibition,Homo sapiens,> 50%
same,Activity,[29],Non-Toxic
same,Activity,[30],Non-Toxic
same,Activity,[31],Non-Toxic
same,Activity,[32],Non-Toxic
same,Activity,[33],Non-Toxic

# — ChEMBL document CHEMBL4837257, “Discovery of the Oxadiazine FRM-024: A Potent CNS-Penetrant Gamma Secretase Modulator” (J Med Chem, 2021)
